{"source": "patent US20040146482A1", "about": "“Cosmetic and/or pharmaceutical preparations containing an extract of pterocarpus marsupium” (priority 2001, published 2004)", "test_system": "human keratinocytes", "assay": "Cell protecting effect against UV-B in keratinocytes cultivated in vitro", "type": "cell-based", "details": "UV-B 50 mJ/cm2, concentration not given", "text": "Background: UV-B rays cause inflammation (erythema, edema) by activating an enzyme, namely phospholipase A2 or PLA2, which removes arachidonic acid from the phospholipids of the cell membrane. Arachidonic acid is the precursor of the prostaglandins which cause inflammation and cell membrane damage; the prostaglandins E2 (=PGE2) are formed by cyclooxygenase. A UV-challenged cell produces another inflammation mediator, namely interleucine-1-alpha (1′ILα), which is capable of inducing the secretion of prostaglandins.\nMethod: The effect of UV-B radiation was investigated in vitro in keratinocytes by determining the release of the cytoplasm enzyme LDH (lactate dehydrogenase) and the(1′ILα) content.\nTo carry out the tests, a defined medium containing fetal calf serum was inoculated with the keratinocytes and Trichodyn® was added 72 hours after the inoculation.\nThe keratinocytes were then exposed to a dose of UV-B (50 mJ/cm^2-tubes: DUKE GL40E).\nAfter incubation for another day at 37° C./5% CO2, the LDH content in the supernatant was determined. The LDH (lactate dehydrogenase) content was determined by an enzyme reaction (kit used to determine LDH levels from Roche). In addition , the (1′ILα) content was determined by the ELISA test. The number of adhering keratinocytes was determined (after trypsin treatment) with a particle counter.", "data": [{"compound": "CC(=O)Oc1ccccc1C(=O)O", "note": "[aspirin]", "values": [{"measurement": "(1′ILα) content", "setting": "UV-B alone = 100", "value": 69, "unit": "%"}, {"measurement": "Content of released LDH", "setting": "UV-B alone = 100", "value": 66, "unit": "%"}, {"measurement": "No. of keratinocytes", "setting": "control without UV-B = 100, UV-B alone 17", "value": 15, "unit": "%"}]}]}
